“And” between values parts separate entries of the source, which are not always exact repeats. Identical values can stand only once.
Key:
[1] = molecular target: LgGUS (Lactobacillus gasseri GUS) (Lactobacillus gasseri, UniProt Q9AHJ8); test: GUS inhibition assay, hydrolysis of 4-methylumbelliferyl-β-glucuronide, LgGUS; format: biochemical; design: GUS activity (hydrolysis rate of MUG) / 1/v: unit not given here
HsGUS (human GUS) = molecular target: T1, HsGUS (human GUS) (Homo sapiens, UniProt P08236); test: GUS inhibition assay, hydrolysis of 4-methylumbelliferyl-β-glucuronide, HsGUS; format: biochemical; design: GUS activity (hydrolysis rate of MUG): unit not given here
T1 construct: HsGUS was prepared as described[37]; made in house
T1 sequence (P08236 23-651): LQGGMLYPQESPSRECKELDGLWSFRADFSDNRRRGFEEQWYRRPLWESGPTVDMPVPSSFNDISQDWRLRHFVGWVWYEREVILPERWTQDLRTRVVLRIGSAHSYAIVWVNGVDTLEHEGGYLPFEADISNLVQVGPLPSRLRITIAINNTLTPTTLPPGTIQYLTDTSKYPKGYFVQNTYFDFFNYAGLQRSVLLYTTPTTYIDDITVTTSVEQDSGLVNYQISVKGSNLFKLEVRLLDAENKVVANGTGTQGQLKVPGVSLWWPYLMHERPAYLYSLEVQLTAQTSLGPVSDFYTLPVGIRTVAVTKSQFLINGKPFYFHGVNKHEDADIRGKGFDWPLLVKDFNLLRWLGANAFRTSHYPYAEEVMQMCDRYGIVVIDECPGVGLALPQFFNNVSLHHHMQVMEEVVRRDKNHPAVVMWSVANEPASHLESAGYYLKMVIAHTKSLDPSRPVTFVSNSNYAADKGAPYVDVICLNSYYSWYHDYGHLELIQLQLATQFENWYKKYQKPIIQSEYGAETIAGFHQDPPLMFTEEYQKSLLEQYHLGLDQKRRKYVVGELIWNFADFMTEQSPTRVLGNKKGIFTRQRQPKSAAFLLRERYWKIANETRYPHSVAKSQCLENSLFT

[2] = [Inhibitor 3] = 2 μM, [MUG] 0.075 mM
[3] = [Inhibitor 3] = 2 μM, [MUG] 0.15 mM
[4] = [Inhibitor 3] = 2 μM, [MUG] 0.3 mM
[5] = [Inhibitor 3] = 4 μM, [MUG] 0.0375 mM
[6] = [Inhibitor 3] = 4 μM, [MUG] 0.075 mM
[7] = [Inhibitor 3] = 4 μM, [MUG] 0.15 mM
[8] = [Inhibitor 3] = 4 μM, [MUG] 0.3 mM

LgGUS (Lactobacillus gasseri GUS), sequence (Q9AHJ8 1-598): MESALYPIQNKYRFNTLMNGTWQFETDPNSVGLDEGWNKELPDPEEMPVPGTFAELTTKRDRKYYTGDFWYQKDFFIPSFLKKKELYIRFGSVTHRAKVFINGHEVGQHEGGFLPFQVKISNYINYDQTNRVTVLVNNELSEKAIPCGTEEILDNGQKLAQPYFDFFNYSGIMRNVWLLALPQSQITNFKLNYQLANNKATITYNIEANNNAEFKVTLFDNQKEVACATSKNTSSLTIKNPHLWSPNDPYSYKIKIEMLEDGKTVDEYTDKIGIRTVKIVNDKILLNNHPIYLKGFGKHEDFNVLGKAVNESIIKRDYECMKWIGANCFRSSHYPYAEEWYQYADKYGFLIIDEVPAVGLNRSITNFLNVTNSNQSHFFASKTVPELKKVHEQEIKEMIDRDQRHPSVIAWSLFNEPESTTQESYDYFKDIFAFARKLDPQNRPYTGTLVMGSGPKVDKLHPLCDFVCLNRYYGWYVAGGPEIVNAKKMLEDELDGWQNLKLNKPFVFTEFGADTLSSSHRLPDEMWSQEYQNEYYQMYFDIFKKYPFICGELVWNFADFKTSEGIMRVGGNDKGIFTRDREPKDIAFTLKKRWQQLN

SMILES: CCCCCC[C@@H]1NC[C@@H](O)[C@H](O)[C@H]1C(=O)O [Inhibitor 3, C6-hexyl UIFG]
- 1/v [1, 2]: 0.3881 and 0.4343 and 0.4681
- GUS activity (hydrolysis rate of MUG) [1, 2]: 3205.84 and 2869.39 and 2664.86
- 1/v [1, 3]: 0.2765 and 0.2621 and 0.3029
- GUS activity (hydrolysis rate of MUG) [1, 3]: 4483.64 and 4728.12 and 4096.06
- 1/v [1, 4]: 0.1941 and 0.1876 and 0.2109
- GUS activity (hydrolysis rate of MUG) [1, 4]: 6369.22 and 6587.98 and 5864.23
- 1/v [1, 5]: 1.38 and 1.418 and 1.362
- GUS activity (hydrolysis rate of MUG) [1, 5]: 930.888 and 906.847 and 942.511
- 1/v [1, 6]: 0.7054 and 0.7651 and 0.7316
- GUS activity (hydrolysis rate of MUG) [1, 6]: 1782.13 and 1646.05 and 1719.56
- 1/v [1, 7]: 0.4164 and 0.4204 and 0.422
- GUS activity (hydrolysis rate of MUG) [1, 7]: 2991.08 and 2963 and 2951.69
- 1/v [1, 8]: 0.2731 and 0.2793 (2×)
- GUS activity (hydrolysis rate of MUG) [1, 8]: 4539.61 and 4438.44 and 4439.48
- Ki (HsGUS (human GUS); HsGUS, 50 mM sodium acetate pH 4.5, 37 °C): 5.3 ± 0.9 µM
- GUS activity (hydrolysis rate of MUG) (HsGUS (human GUS); [Inhibitor 3] =0.15625 μM, [MUG] 0.1 mM): 771.278 and 806.238
- GUS activity (hydrolysis rate of MUG) (HsGUS (human GUS); [Inhibitor 3] =0.15625 μM, [MUG] 0.2 mM): 1372.81 and 1460.04
- GUS activity (hydrolysis rate of MUG) (HsGUS (human GUS); [Inhibitor 3] =0.15625 μM, [MUG] 0.4 mM): 2346.7 and 2406.16
- GUS activity (hydrolysis rate of MUG) (HsGUS (human GUS); [Inhibitor 3] =0.15625 μM, [MUG] 0.6 mM): 2899.99 and 3077.74
- GUS activity (hydrolysis rate of MUG) (HsGUS (human GUS); [Inhibitor 3] =0.15625 μM, [MUG] 0.8 mM): 3398.11 and 3693.06
- GUS activity (hydrolysis rate of MUG) (HsGUS (human GUS); [Inhibitor 3] =0.15625 μM, [MUG] 1.2 mM): 4234.64 and 3962.7
- GUS activity (hydrolysis rate of MUG) (HsGUS (human GUS); [Inhibitor 3] =0.15625 μM, [MUG] 1.6 mM): 4964.29 and 4569.67
- GUS activity (hydrolysis rate of MUG) (HsGUS (human GUS); [Inhibitor 3] =0.15625 μM, [MUG] 2 mM): 5606.01 and 4919.37
- GUS activity (hydrolysis rate of MUG) (HsGUS (human GUS); [Inhibitor 3] =0.3125 μM, [MUG] 0.1 mM): 857.043 and 831.938
- GUS activity (hydrolysis rate of MUG) (HsGUS (human GUS); [Inhibitor 3] =0.3125 μM, [MUG] 0.2 mM): 1433.02 and 1411.42
- GUS activity (hydrolysis rate of MUG) (HsGUS (human GUS); [Inhibitor 3] =0.3125 μM, [MUG] 0.4 mM): 2271.61 and 2263.8
- GUS activity (hydrolysis rate of MUG) (HsGUS (human GUS); [Inhibitor 3] =0.3125 μM, [MUG] 0.6 mM): 2953.53 and 2923.55
- GUS activity (hydrolysis rate of MUG) (HsGUS (human GUS); [Inhibitor 3] =0.3125 μM, [MUG] 0.8 mM): 3510.33 and 3469.47
- GUS activity (hydrolysis rate of MUG) (HsGUS (human GUS); [Inhibitor 3] =0.3125 μM, [MUG] 1.2 mM): 4268.51 and 4308.7
- GUS activity (hydrolysis rate of MUG) (HsGUS (human GUS); [Inhibitor 3] =0.3125 μM, [MUG] 1.6 mM): 4927.41 and 4670.47
- GUS activity (hydrolysis rate of MUG) (HsGUS (human GUS); [Inhibitor 3] =0.3125 μM, [MUG] 2 mM): 5186.78 and 5296.26
- GUS activity (hydrolysis rate of MUG) (HsGUS (human GUS); [Inhibitor 3] =0.625 μM, [MUG] 0.1 mM): 778.258 and 858.783
- GUS activity (hydrolysis rate of MUG) (HsGUS (human GUS); [Inhibitor 3] =0.625 μM, [MUG] 0.2 mM): 1379.09 and 1422.22
- GUS activity (hydrolysis rate of MUG) (HsGUS (human GUS); [Inhibitor 3] =0.625 μM, [MUG] 0.4 mM): 2137.64 and 2310.12
- GUS activity (hydrolysis rate of MUG) (HsGUS (human GUS); [Inhibitor 3] =0.625 μM, [MUG] 0.6 mM): 2842.46 and 2976.65
- GUS activity (hydrolysis rate of MUG) (HsGUS (human GUS); [Inhibitor 3] =0.625 μM, [MUG] 0.8 mM): 3348.75 and 3351.68
- GUS activity (hydrolysis rate of MUG) (HsGUS (human GUS); [Inhibitor 3] =0.625 μM, [MUG] 1.2 mM): 4293.66 and 3890.63
- GUS activity (hydrolysis rate of MUG) (HsGUS (human GUS); [Inhibitor 3] =0.625 μM, [MUG] 1.6 mM): 4573.95 and 4600.88
- GUS activity (hydrolysis rate of MUG) (HsGUS (human GUS); [Inhibitor 3] =0.625 μM, [MUG] 2 mM): 5372.6 and 4990.92
- GUS activity (hydrolysis rate of MUG) (HsGUS (human GUS); [Inhibitor 3] =1.25 μM, [MUG] 0.1 mM): 717.04 and 716.519
- GUS activity (hydrolysis rate of MUG) (HsGUS (human GUS); [Inhibitor 3] =1.25 μM, [MUG] 0.2 mM): 1240.56 and 1222.88
- GUS activity (hydrolysis rate of MUG) (HsGUS (human GUS); [Inhibitor 3] =1.25 μM, [MUG] 0.4 mM): 2023.29 and 2076.53
- GUS activity (hydrolysis rate of MUG) (HsGUS (human GUS); [Inhibitor 3] =1.25 μM, [MUG] 0.6 mM): 2757.57 and 2739.69
- GUS activity (hydrolysis rate of MUG) (HsGUS (human GUS); [Inhibitor 3] =1.25 μM, [MUG] 0.8 mM): 3062.28 and 3123.61
- GUS activity (hydrolysis rate of MUG) (HsGUS (human GUS); [Inhibitor 3] =1.25 μM, [MUG] 1.2 mM): 3822.55 and 3852.43
- GUS activity (hydrolysis rate of MUG) (HsGUS (human GUS); [Inhibitor 3] =1.25 μM, [MUG] 1.6 mM): 4324.26 and 4371.34
- GUS activity (hydrolysis rate of MUG) (HsGUS (human GUS); [Inhibitor 3] =1.25 μM, [MUG] 2 mM): 5149.01 and 5020.2
- GUS activity (hydrolysis rate of MUG) (HsGUS (human GUS); [Inhibitor 3] =2.5 μM, [MUG] 0.1 mM): 605.275 and 587.992
- GUS activity (hydrolysis rate of MUG) (HsGUS (human GUS); [Inhibitor 3] =2.5 μM, [MUG] 0.2 mM): 1017.03 and 1026.81
- GUS activity (hydrolysis rate of MUG) (HsGUS (human GUS); [Inhibitor 3] =2.5 μM, [MUG] 0.4 mM): 1798.51 and 1698.98
- GUS activity (hydrolysis rate of MUG) (HsGUS (human GUS); [Inhibitor 3] =2.5 μM, [MUG] 0.6 mM): 2384.66 and 2417.17
- GUS activity (hydrolysis rate of MUG) (HsGUS (human GUS); [Inhibitor 3] =2.5 μM, [MUG] 0.8 mM): 2879.78 and 2802.26
- GUS activity (hydrolysis rate of MUG) (HsGUS (human GUS); [Inhibitor 3] =2.5 μM, [MUG] 1.2 mM): 3545.79 and 3649.82
- GUS activity (hydrolysis rate of MUG) (HsGUS (human GUS); [Inhibitor 3] =2.5 μM, [MUG] 1.6 mM): 4144.07 and 4075.98
- GUS activity (hydrolysis rate of MUG) (HsGUS (human GUS); [Inhibitor 3] =2.5 μM, [MUG] 2 mM): 4744.38 and 4849.33
- GUS activity (hydrolysis rate of MUG) (HsGUS (human GUS); [Inhibitor 3] =3.75 μM, [MUG] 0.1 mM): 572.514 and 563.082
- GUS activity (hydrolysis rate of MUG) (HsGUS (human GUS); [Inhibitor 3] =3.75 μM, [MUG] 0.2 mM): 956.564 and 935.374
- GUS activity (hydrolysis rate of MUG) (HsGUS (human GUS); [Inhibitor 3] =3.75 μM, [MUG] 0.4 mM): 1708.56 and 1611.49
- GUS activity (hydrolysis rate of MUG) (HsGUS (human GUS); [Inhibitor 3] =3.75 μM, [MUG] 0.6 mM): 2310.6 and 2247.59
- GUS activity (hydrolysis rate of MUG) (HsGUS (human GUS); [Inhibitor 3] =3.75 μM, [MUG] 0.8 mM): 2878.65 and 2643.42
- GUS activity (hydrolysis rate of MUG) (HsGUS (human GUS); [Inhibitor 3] =3.75 μM, [MUG] 1.2 mM): 3484.96 and 3524
- GUS activity (hydrolysis rate of MUG) (HsGUS (human GUS); [Inhibitor 3] =3.75 μM, [MUG] 1.6 mM): 3945.8 and 4134.14
- GUS activity (hydrolysis rate of MUG) (HsGUS (human GUS); [Inhibitor 3] =3.75 μM, [MUG] 2 mM): 4453.48 and 4566.78

Reference: paper PMC7933434, “Entropy-driven binding of gut bacterial β-glucuronidase inhibitors ameliorates irinotecan-induced toxicity” (Communications Biology, 2021)
